Results taken from US20260184697A1, “EZH1/2 INHIBITOR, PREPARATION THEREOF, AND USE THEREOF IN ANTI-TUMOR THERAPY” (JIANGSU TASLY DIYI PHARMACEUTICAL CO., LTD., priority 2022, published 2026).

What was measured:
[1] = system: H3K27Me3 methylation in Karpas-422 cells; assay: H3K27Me3 cell method, inhibition of H3K27Me3 methylation (Test Example 2); format: cell-based, human; settings: Homo sapiens, KARPAS-422, 72 h, Karpas-422 cells, 3 days incubation, HTRF signal; read-out: Test Example 2 H3K27Me3 inhibition (Karpas-422) IC50
Protocol: Karpas-422 (Nanjing Kebai, CBP60629) cells were seeded in a 96-well plate (Corning, 3894) at 15,000 cells per well in culture medium (80% 1640 (Hyclone, SH30809.01)+20% FBS (Corning, 35-081-CV)), and then added with different concentrations of compounds for treatment. The cell growth group without adding compounds is used as a positive control (maximum signal control), and the medium is used as a negative control (minimum signal control), while ensuring that in each reaction well, the final concentration of DMSO was 0.2%. Compounds and cells were incubated for 3 days in a cell culture incubator (37° C., 5% CO2). The 96-well plate was taken out from the cell culture incubator and equilibrated to room temperature, and 25 ul of cell suspension was taken out into a 384-well plate. The CCK8 (Beiyuntian, C0040) detection reagent was added, incubated at 37° C. for 1 h, and […] was detected. The rest of the cells followed the procedure of the kit EPIgeneous H3K27Me3 cellular kit (Cisbio, 62KC3PAE) to carry out experiment, read HTRF signal with BMG PHERAStar. […] By GraphPad Prism 6 with log(inhibitor)vs.response-Variable slope model simulation, the IC50 of the compound on cell activity inhibition was calculated. The fitting equation is: Y=Bottom+(Top−Bottom)/(1+10^((Log IC50−X)*HillSlope)), wherein Y represents the inhibition rate, and X represents the known concentration of the compound after Log.

[2] = target: T1, EZH2/SUZ/EED (Homo sapiens, UniProt O75530+Q15022+Q15910); assay: Inhibitory effect on EZH2 by the MTase-Glo method (Test Example 1); format: biochemical; settings: EZH2/SUZ/EED 6.25 nM, H3 peptide 10 μM, SAM 3 μM, 30° C. 3 h, read-out: Test Example 1 WT EZH2 IC50
T1 construct: purchased BPS 51003
T1 sequence (Q15910 2-746 limits assumed): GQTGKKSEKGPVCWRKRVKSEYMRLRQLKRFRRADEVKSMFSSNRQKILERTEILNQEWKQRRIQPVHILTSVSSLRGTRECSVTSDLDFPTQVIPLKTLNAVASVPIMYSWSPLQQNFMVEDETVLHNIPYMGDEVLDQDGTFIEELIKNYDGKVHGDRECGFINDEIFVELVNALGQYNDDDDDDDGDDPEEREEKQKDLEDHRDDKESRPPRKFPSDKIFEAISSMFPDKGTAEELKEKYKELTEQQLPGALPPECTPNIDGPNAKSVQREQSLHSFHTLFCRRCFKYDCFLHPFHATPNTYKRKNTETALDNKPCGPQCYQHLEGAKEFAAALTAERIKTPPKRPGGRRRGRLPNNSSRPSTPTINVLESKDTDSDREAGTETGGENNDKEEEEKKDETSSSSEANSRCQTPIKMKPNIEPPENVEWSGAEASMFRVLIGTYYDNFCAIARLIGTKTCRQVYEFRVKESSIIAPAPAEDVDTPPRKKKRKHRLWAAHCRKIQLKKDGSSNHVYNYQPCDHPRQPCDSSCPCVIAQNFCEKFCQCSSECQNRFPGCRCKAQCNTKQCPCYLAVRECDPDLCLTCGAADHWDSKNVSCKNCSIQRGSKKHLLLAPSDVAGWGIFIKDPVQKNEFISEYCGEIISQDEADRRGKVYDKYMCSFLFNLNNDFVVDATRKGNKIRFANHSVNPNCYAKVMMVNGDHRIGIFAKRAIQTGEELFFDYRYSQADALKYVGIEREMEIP
T1 sequence (Q15022 2-739 partner limits assumed): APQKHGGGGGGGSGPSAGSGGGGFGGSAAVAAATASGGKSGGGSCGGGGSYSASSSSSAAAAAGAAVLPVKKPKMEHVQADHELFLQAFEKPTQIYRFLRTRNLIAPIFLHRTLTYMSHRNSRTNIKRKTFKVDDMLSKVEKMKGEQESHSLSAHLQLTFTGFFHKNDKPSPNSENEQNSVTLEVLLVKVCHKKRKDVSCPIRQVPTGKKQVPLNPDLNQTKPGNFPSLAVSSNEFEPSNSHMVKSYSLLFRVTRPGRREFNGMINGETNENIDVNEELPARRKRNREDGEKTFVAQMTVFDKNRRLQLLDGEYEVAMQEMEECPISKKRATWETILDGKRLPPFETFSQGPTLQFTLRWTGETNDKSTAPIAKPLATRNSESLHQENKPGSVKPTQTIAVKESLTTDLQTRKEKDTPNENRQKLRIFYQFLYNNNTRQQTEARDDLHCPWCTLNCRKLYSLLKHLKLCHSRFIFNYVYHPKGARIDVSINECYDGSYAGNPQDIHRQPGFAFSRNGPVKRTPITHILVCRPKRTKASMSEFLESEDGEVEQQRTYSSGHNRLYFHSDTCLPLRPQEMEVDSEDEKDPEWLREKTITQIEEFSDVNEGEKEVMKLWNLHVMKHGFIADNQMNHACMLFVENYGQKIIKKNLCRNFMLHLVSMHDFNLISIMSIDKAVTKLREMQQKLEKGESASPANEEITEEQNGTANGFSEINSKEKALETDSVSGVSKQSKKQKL
T1 sequence (O75530 2-441 partner limits assumed): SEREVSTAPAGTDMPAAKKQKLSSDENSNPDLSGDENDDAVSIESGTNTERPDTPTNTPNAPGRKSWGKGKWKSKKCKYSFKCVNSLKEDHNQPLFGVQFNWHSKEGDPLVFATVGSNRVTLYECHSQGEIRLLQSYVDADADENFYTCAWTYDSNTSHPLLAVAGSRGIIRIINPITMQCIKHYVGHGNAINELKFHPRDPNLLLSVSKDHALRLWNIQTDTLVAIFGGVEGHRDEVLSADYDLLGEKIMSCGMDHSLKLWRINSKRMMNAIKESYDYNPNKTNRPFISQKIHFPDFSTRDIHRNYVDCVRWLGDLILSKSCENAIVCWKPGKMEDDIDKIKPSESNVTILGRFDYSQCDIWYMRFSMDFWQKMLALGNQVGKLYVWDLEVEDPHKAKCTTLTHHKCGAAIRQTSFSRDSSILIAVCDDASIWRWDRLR
Protocol: (§1) The compound was dissolved in DMSO, and the compound was serially diluted using ECHO665 and transferred to a 384-well reaction plate (Corning, 3824). A sample containing only DMSO was added as a positive control (maximum signal control) and a negative control (minimum signal control), while ensuring that the final DMSO content in each reaction well was 0.5%. The protein was configured in reaction buffer (50 mM Bicine, 0.01% Triton X-100, 1 mM DTT, 0.01% BSA, pH 7.6), such that the final reaction concentrations of EZH2/SUZ/EED (BPS, 51003) protein solution and EZH1/SUZ/EED (BPS, 51006) were 6.25 nM and 25 nM, respectively. The negative control (minimum signal control) used an equal amount of buffer instead of protein solution. The prepared protein solution was added to the 384-well reaction plate and pre-incubated at room temperature for 15 minutes. The mixture of the substrate H3 peptide fragment (custom-synthesized by GenScript, biotinylated Histone H3(21-44) peptide ([…]-GG-K(Biotin)-OH)) prepared in the reaction buffer and SAM (Promega, V7601) was added into the 384-well plate, such that the final reaction concentration of H3 peptide fragment was 10 μM, and the final concentration of SAM was 3 μM. The mixture was centrifuged at 1000 rpm for 1 min. The 384-well reaction plate was placed in a constant temperature shaker and incubate at 30° C. for 3 h at a speed of 300 rpm. Then the detection reagent was added according to the experimental process of the kit MTase-Glo (Promega, V7601) and incubated.
(§2) After incubation, read with BMG PHERAStar. The luminescence signals obtained by positive control (maximum signal control) and negative control (minimum signal control) were normalized to obtain the inhibition rate of different concentrations of compounds. Then, the IC50 of the compound on the enzyme activity inhibition was calculated by GraphPad Prism 6 with log(inhibitor) vs. response-Variable slope model fitting. The fitting equation is: Y=Bottom+(Top−Bottom)/(1+10^((Log IC50−X)*HillSlope)), wherein Y represents the known percentage remaining enzyme activity, and X represents the known activity after Log compound concentration.

[3] = target: T2, EZH1/SUZ/EED (Homo sapiens, UniProt O75530+Q15022+Q92800); assay: Inhibitory effect on EZH1 by the MTase-Glo method (Test Example 1); format: biochemical; settings: EZH1/SUZ/EED 25 nM, H3 peptide 10 μM, SAM 3 μM, 30° C. 3 h, read-out: Test Example 1 WT EZH1 IC50
T2 construct: purchased BPS 51006
T2 sequence (Q92800 2-747 limits assumed): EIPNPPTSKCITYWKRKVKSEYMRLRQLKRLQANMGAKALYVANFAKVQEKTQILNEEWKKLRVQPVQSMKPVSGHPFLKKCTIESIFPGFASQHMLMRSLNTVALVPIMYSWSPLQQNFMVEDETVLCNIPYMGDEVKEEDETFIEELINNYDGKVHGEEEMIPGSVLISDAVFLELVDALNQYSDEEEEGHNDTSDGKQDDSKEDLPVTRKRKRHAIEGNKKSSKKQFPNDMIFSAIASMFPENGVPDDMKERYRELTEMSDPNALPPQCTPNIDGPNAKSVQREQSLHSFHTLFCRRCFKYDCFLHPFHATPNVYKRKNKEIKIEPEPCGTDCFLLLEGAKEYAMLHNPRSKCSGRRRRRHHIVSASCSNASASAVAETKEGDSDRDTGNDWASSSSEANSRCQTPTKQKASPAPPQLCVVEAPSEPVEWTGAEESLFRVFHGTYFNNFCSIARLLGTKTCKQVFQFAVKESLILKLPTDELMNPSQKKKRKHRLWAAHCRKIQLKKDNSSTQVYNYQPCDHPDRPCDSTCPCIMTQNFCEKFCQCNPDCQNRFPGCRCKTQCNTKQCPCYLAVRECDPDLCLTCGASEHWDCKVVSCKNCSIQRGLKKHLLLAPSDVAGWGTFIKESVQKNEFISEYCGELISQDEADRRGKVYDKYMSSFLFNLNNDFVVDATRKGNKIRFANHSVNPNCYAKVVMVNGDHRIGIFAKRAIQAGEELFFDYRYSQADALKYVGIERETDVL
T2 sequence (Q15022 2-739 partner limits assumed): as the sequence (Q15022 2-739 partner limits assumed) above
T2 sequence (O75530 2-441 partner limits assumed): as the sequence (O75530 2-441 partner limits assumed) above
Protocol: as §1, §2

Compound: Cc1cc(C)c(CNC(=O)c2cc(Cl)c3c(c2C)OC(C2CCC(N4CCOCC4)CC2)CO3)c(=O)[nH]1 (single isomer, unassigned) [Compound 81]
- IC50 [1]: > 1000 nM
- IC50 [2]: 31 nM

Compound: Cc1cc(C)c(CNC(=O)c2cc(Cl)c3c(c2C)O[C@H]([C@H]2CC[C@H](N4CC5COCC5C4)CC2)CO3)c(=O)[nH]1 (stereo partly drawn) [Compound 72]
- IC50 [2]: 1250 nM
- IC50 [3]: > 10000 nM

Compound: Cc1cc(C)c(CNC(=O)c2cc(Cl)c3c(c2C)OC(C2CCN(C)CC2)CO3)c(=O)[nH]1 (stereo not drawn) [Compound 1]
- IC50 [2]: 27.5 nM
- IC50 [3]: 1300 nM

Compound: CSc1cc(C)[nH]c(=O)c1CN(C)C(=O)c1cc(Cl)c2c(c1C)O[C@@H]([C@H]1CC[C@@H](N(C)C)CC1)CO2 [Compound 128]
- IC50 [1]: 43.2 nM
- IC50 [2]: 9.5 nM

Compound: CSc1cc(C)[nH]c(=O)c1CNC(=O)c1cc(Cl)c2c(c1C)O[C@H](C1CCN(CC3CC3)CC1)CO2 [Compound 31]
- IC50 [2]: 66.3 nM
- IC50 [3]: 491 nM

Compound: CO[C@H]1CCN([C@H]2CC[C@@H]([C@H]3COc4c(Cl)cc(C(=O)NCc5c(SC)cc(C)[nH]c5=O)c(C)c4O3)CC2)C1 [Compound 39]
- IC50 [2]: 4 nM
- IC50 [3]: 7.3 nM

Compound: [2H]C([2H])([2H])OC1CN([C@H]2CC[C@H]([C@H]3COc4c(Cl)cc(C(=O)NCc5c(SC)cc(C)[nH]c5=O)c(C)c4O3)CC2)C1 [Compound 21]
- IC50 [2]: 6.4 nM
- IC50 [3]: 18.9 nM

Compound: Cc1cc(C)c(CNC(=O)c2cc(Cl)c3c(c2C)OC(C2CCC(N4CC(F)C4)CC2)CO3)c(=O)[nH]1 (single isomer, unassigned) [Compound 71]
- IC50 [2]: 41.8 nM
- IC50 [3]: 564 nM

Compound: Cc1cc(C)c(CNC(=O)c2cc(Cl)c3c(c2C)OC(C2CCC(NC4CC(F)(F)C4)CC2)CO3)c(=O)[nH]1 (single isomer, unassigned) [Compound 67]
- IC50 [2]: 47.6 nM
- IC50 [3]: 367 nM

Compound: Cc1cc(C)c(CNC(=O)c2cc(Cl)c3c(c2C)O[C@@H](C2CCN(CC4COC4)CC2)CO3)c(=O)[nH]1 [Compound 86]
- IC50 [1]: > 1000 nM
- IC50 [2]: 20.1 nM

Compound: COCCN(C)[C@H]1CC[C@H]([C@H]2COc3c(Cl)cc(C(=O)NCc4c(OC)cc(C)[nH]c4=O)c(C)c3O2)CC1 [Compound 108]
- IC50 [2]: 5 nM
- IC50 [3]: 69.3 nM

Compound: COC1CN([C@H]2CC[C@H]([C@H]3COc4c(Cl)cc(C(=O)NCc5c(SC)cc(C)[nH]c5=O)c(Cl)c4O3)CC2)C1 [Compound 150]
- IC50 [2]: 11.6 nM
- IC50 [3]: 22.2 nM

Compound: Cc1cc(C)c(CNC(=O)c2cc(Cl)c3c(c2Cl)O[C@H]([C@H]2CC[C@@H](N(C)C)CC2)CO3)c(=O)[nH]1 [Compound 142]
- IC50 [2]: 1160 nM
- IC50 [3]: 7610 nM

Compound: Cc1cc(C)c(CNC(=O)c2cc(Cl)c3c(c2C)O[C@@H](C2CCN(CC4CC4)CC2)CO3)c(=O)[nH]1 [Compound 90]
- IC50 [2]: 18.6 nM
- IC50 [3]: 945 nM

Compound: COc1cc(C)[nH]c(=O)c1CNC(=O)c1cc(Cl)c2c(c1C)O[C@@H]([C@H]1CC[C@@H](N3CC4C(C3)C4OC)CC1)CO2 (stereo partly drawn) [Compound 115]
- IC50 [2]: 4.9 nM
- IC50 [3]: 74.8 nM

Compound: COC1CN([C@H]2CC[C@H]([C@H]3COc4c(Cl)cc(C(=O)NCc5c([S+](C)[O-])cc(C)[nH]c5=O)c(C)c4O3)CC2)C1 (stereo partly drawn) [Compound 140]
- IC50 [2]: 897 nM
- IC50 [3]: 8910 nM

Compound: CSc1cc(C)[nH]c(=O)c1CNC(=O)c1cc(Cl)c2c(c1C)O[C@@H]([C@H]1CC[C@H](N3CC4(CCOC4)C3)CC1)CO2 [Compound 48]
- IC50 [1]: 27.9 nM
- IC50 [3]: 6 nM

Compound: COC1(C(F)(F)F)CN(C2CCC(C3COc4c(Cl)cc(C(=O)NCc5c(C)cc(C)[nH]c5=O)c(C)c4O3)CC2)C1 (single isomer, unassigned) [Compound 68]
- IC50 [2]: 59.3 nM
- IC50 [3]: > 10000 nM
